From PubChem BioAssay AID1963856 (Molecular Pharmacology Branch, DTP, NCI, 2024)

System: LG0567-F671-PDC KRAS tumor spheroid viability
Assay: Anticancer human tumor LG0567-F671-PDC patient-derived lung adenocarcinoma cell line growth inhibition [KRAS2]
Settings: spheroids with HUVEC and MSC; for IC50: curve of first compound; for viability, T/C: stronger effect = lower value
Summary of the method: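 KRAS-mutant tumor cells were grown as spheroids with HUVEC endothelial cells and human MSCs as stroma. Targeted agents were tested alone and with KRAS pathway inhibitors. Doses started at or near clinical Cmax, or 10 microM, descending half-log.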

[1] = second compound 0.1 µM, first compound 0.01 µM
[2] = second compound 0.1 µM, first compound 0.0316 µM
[3] = second compound 0.1 µM, first compound 0.1 µM
[4] = second compound 0.1 µM, first compound 0.316 µM
[5] = second compound 0.1 µM, first compound 1 µM
[6] = second compound 0.1 µM, first compound 3.16 µM
[7] = second compound 0.316 µM, first compound 0.01 µM
[8] = second compound 0.316 µM, first compound 0.0316 µM
[9] = second compound 0.316 µM, first compound 0.1 µM
[10] = second compound 0.316 µM, first compound 0.316 µM
[11] = second compound 0.316 µM, first compound 1 µM
[12] = second compound 0.316 µM, first compound 3.16 µM
[13] = second compound 1 µM, first compound 0.01 µM
[14] = second compound 1 µM, first compound 0.0316 µM
[15] = second compound 1 µM, first compound 0.1 µM
[16] = second compound 1 µM, first compound 0.316 µM
[17] = second compound 1 µM, first compound 1 µM
[18] = second compound 1 µM, first compound 3.16 µM
[19] = second compound 3.16 µM, first compound 0.01 µM
[20] = second compound 3.16 µM, first compound 0.0316 µM
[21] = second compound 3.16 µM, first compound 0.1 µM
[22] = second compound 3.16 µM, first compound 0.316 µM
[23] = second compound 3.16 µM, first compound 1 µM
[24] = second compound 3.16 µM, first compound 3.16 µM
[25] = second compound 10 µM, first compound 0.01 µM
[26] = second compound 10 µM, first compound 0.0316 µM
[27] = second compound 10 µM, first compound 0.1 µM
[28] = second compound 10 µM, first compound 0.316 µM
[29] = second compound 10 µM, first compound 1 µM
[30] = second compound 10 µM, first compound 3.16 µM
[31] = second compound 0.1 µM, first compound 10 µM
[32] = second compound 0.316 µM, first compound 10 µM
[33] = second compound 1 µM, first compound 10 µM
[34] = second compound 3.16 µM, first compound 10 µM
[35] = second compound 10 µM, first compound 10 µM
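Note: drug exposure lasted seven days after spheroids formed for three days.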
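Throughout, for viability, T/C: 100% = DMSO vehicle control viability.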

Compound	IC50 (second compound 0.1 µM) [nM]	IC50 (second compound 0.316 µM) [nM]	IC50 (second compound 1 µM) [nM]	IC50 (second compound 3.16 µM) [nM]	IC50 (second compound 10 µM) [nM]	viability, T/C [2] [%]	viability, T/C [3] [%]	viability, T/C [4] [%]	viability, T/C [5] [%]	viability, T/C [8] [%]	viability, T/C [9] [%]	viability, T/C [10] [%]	viability, T/C [11] [%]	viability, T/C [14] [%]	viability, T/C [15] [%]	viability, T/C [16] [%]	viability, T/C [17] [%]	viability, T/C [20] [%]	viability, T/C [21] [%]	viability, T/C [22] [%]	further results
CC1COCCN1c1cc(-c2ccnn2C)c2ccnc(-c3ccn[nH]3)c2n1 (stereo not given) + CNCc1ccccc1-c1csc(C(C)Nc2nc(C)nc3cc(OC)c(OC)cc23)c1	> 3160	372	41.4	160	< 10	74.4	60.2	58.9	48.6	77.7	60.6	50.6	46	50.7	42.6	41.4	34.7	58.5	61.6	29.8	viability, T/C [1]: 87.1%; viability, T/C [6]: 54%; viability, T/C [7]: 85.9%; viability, T/C [12]: 49.2%; viability, T/C [13]: 68%; viability, T/C [18]: 33.4%; viability, T/C [19]: 65.6%; viability, T/C [23]: 33.2%; viability, T/C [24]: 36.2%; viability, T/C [25]: 0.18%; viability, T/C [26]: 0.17%; viability, T/C [27]: 0.15%; viability, T/C [28]: 0.17%; viability, T/C [29]: 0.74%; viability, T/C [30]: 0.24%
CC1OCC2(CCN(c3cnc(Sc4ccnc(N)c4Cl)c(N)n3)CC2)C1N (stereo not given) + CNCc1ccccc1-c1csc(C(C)Nc2nc(C)nc3cc(OC)c(OC)cc23)c1	68.1	53.3	75	221	< 31.6	60.4	44.5	33.3	28.6	57.1	41.6	30	23.3	61.5	43.4	38.4	24.8	79.2	65.7	43.8	viability, T/C [6]: 23.6%; viability, T/C [31]: 17.7%; viability, T/C [12]: 22.1%; viability, T/C [32]: 14.6%; viability, T/C [18]: 18.1%; viability, T/C [33]: 13.5%; viability, T/C [23]: 13.4%; viability, T/C [24]: 3.22%; viability, T/C [34]: 3.6%; viability, T/C [26]: 0.2%; viability, T/C [27]: 0.17%; viability, T/C [28]: 0.16%; viability, T/C [29]: 0.14%; viability, T/C [30]: 0.13%; viability, T/C [35]: 0.2%
CCN1CCN(Cc2ccc(Nc3ncc(F)c(-c4cc(F)c5nc(C)n(C(C)C)c5c4)n3)nc2)CC1 + CNCc1ccccc1-c1csc(C(C)Nc2nc(C)nc3cc(OC)c(OC)cc23)c1	493	68.2	6.43	13.7	< 3.16	65	62.6	50.1	47.3	51.1	54.8	43.8	42	44.3	37.8	39.9	33.9	0.63	11.6	3.01	viability, T/C (second compound 0.1 µM, first compound 0.00316 µM): 78%; viability, T/C [1]: 76.3%; viability, T/C (second compound 0.316 µM, first compound 0.00316 µM): 77.2%; viability, T/C [7]: 60.5%; viability, T/C (second compound 1 µM, first compound 0.00316 µM): 52%; viability, T/C [13]: 50.5%; viability, T/C (second compound 3.16 µM, first compound 0.00316 µM): 60.6%; viability, T/C [19]: 74.2%; viability, T/C [23]: 0.17%; viability, T/C (second compound 10 µM, first compound 0.00316 µM): 0.18%; viability, T/C [25]: 0.15%; viability, T/C [26]: 0.13%; viability, T/C [27]: 0.12%; viability, T/C [28]: 0.13%; viability, T/C [29]: 0.18%
CCNC(=O)CC1N=C(c2ccc(Cl)cc2)c2cc(OC)ccc2-n2c(C)nnc21 (stereo not given) + CNCc1ccccc1-c1csc(C(C)Nc2nc(C)nc3cc(OC)c(OC)cc23)c1	1010	602	362	127	< 31.6	96.7	92.1	66.1	49.9	85.4	87.6	64.1	39.2	70.2	67.6	49	39	72.3	62.5	1.46	viability, T/C [6]: 42.1%; viability, T/C [31]: 30%; viability, T/C [12]: 32.7%; viability, T/C [32]: 30.6%; viability, T/C [18]: 29.7%; viability, T/C [33]: 25.5%; viability, T/C [23]: 0.1%; viability, T/C [24]: 2.03%; viability, T/C [34]: 1.27%; viability, T/C [26]: 0.18%; viability, T/C [27]: 0.15%; viability, T/C [28]: 0.22%; viability, T/C [29]: 0.09%; viability, T/C [30]: 0.09%; viability, T/C [35]: 0.15%
Cn1nccc1Nc1nccc(-c2cc3c(s2)C(C)(C)N(CCN2CCOCC2)C3=O)n1 + CNCc1ccccc1-c1csc(C(C)Nc2nc(C)nc3cc(OC)c(OC)cc23)c1	581	557	340	794	< 31.6	83.6	68.6	59.6	44.1	66.2	65.1	54.2	46	66.2	66.1	49.7	35.6	73.9	71.7	53.3	viability, T/C [6]: 31.7%; viability, T/C [31]: 32%; viability, T/C [12]: 28.3%; viability, T/C [32]: 26.8%; viability, T/C [18]: 29.1%; viability, T/C [33]: 26.3%; viability, T/C [23]: 44.7%; viability, T/C [24]: 36.6%; viability, T/C [34]: 1.09%; viability, T/C [26]: 0.21%; viability, T/C [27]: 0.18%; viability, T/C [28]: 0.76%; viability, T/C [29]: 0.16%; viability, T/C [30]: 1.91%; viability, T/C [35]: 0.18%
CC(=O)OC12COC1CC(O)C1(C)C(=O)C(O)C3=C(C)C(OC(=O)C(O)C(NC(=O)OC(C)(C)C)c4ccccc4)CC(O)(C(OC(=O)c4ccccc4)C21)C3(C)C (stereo not given) + COc1cc2nc(C)nc(NC(C)c3cc(N)cc(C(F)(F)F)c3)c2cc1OC1CCOC1	> 3160	< 10	> 3160	< 10	> 3160	52.6	53.9	57.9	72.3	40	52.4	45.4	51	69.2	69.7	70.5	78.8	46.9	56.3	48.9	viability, T/C [1]: 55.8%; viability, T/C [6]: 58.7%; viability, T/C [7]: 48.6%; viability, T/C [12]: 47.6%; viability, T/C [13]: 54.9%; viability, T/C [18]: 50.3%; viability, T/C [19]: 50.5%; viability, T/C [23]: 57.1%; viability, T/C [24]: 59.1%; viability, T/C [25]: 62.7%; viability, T/C [26]: 58.1%; viability, T/C [27]: 53.8%; viability, T/C [28]: 54.6%; viability, T/C [29]: 64.4%; viability, T/C [30]: 62.2%
